Assay results: US20240376084A1, “INHIBITORS OF ALPHA-HEMOLYSIN OF STAPHYLOCOCCUS AUREUS” (Helmholtz-Zentrum Fur Infektionsforschung GmbH, priority 2021, published 2024)

Experiments:
[1] = target: hemolysin alpha from Staphylococcus aureus (Staphylococcus aureus, UniProt P09616); test: cell-based
[2] = target: S. aureus Alpha hemolysin (Staphylococcus aureus, UniProt P09616); test: cell-based
Chain of S. aureus Alpha hemolysin (P09616 27-319 limits assumed): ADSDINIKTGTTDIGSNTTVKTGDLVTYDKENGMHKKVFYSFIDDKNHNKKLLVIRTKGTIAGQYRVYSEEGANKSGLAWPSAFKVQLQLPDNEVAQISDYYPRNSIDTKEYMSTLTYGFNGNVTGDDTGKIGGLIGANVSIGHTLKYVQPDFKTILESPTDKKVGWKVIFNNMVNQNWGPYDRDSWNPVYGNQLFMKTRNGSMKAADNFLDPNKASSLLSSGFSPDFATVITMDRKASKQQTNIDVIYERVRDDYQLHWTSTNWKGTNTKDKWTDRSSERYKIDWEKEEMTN

Chain of hemolysin alpha from Staphylococcus aureus (P09616 27-319 limits assumed): as above

Row | SMILES | IC50 [1] [nM] | EC50 ([2]; A549-LDH Assay activity) [nM] | EC50 [1] [nM] | EC50 ([2]; LDH Assay EC50) [nM]
1 | O=c1[nH]c2cc(Cl)c(S(=O)(=O)Nc3ccc(-c4ccccc4)cc3)cc2[nH]c1=O [Compound 98, N-([1,1′-biphenyl]-4-yl)-7-chloro-2,3-dioxo-1,2,3,4-tetrahydroquinoxaline-6-sulfonamide] | 100 to 1000 | 100 to 1000 |  | 
2 | Cc1cc2[nH]c(=O)c(=O)[nH]c2cc1S(=O)(=O)Nc1ccc(-c2sccc2C)c(Cl)c1 [Compound 62, N-(3-chloro-4-(3-methylthiophen-2-yl)phenyl)-7-methyl-2,3-dioxo-1,2,3,4-tetrahydroquinoxaline-6-sulfonamide] | 30 to 100 | 100 to 1000 |  | 
3 | Cc1cc2[nH]c(=O)c(=O)[nH]c2cc1S(=O)(=O)Nc1ccc(-c2cc(Cl)cc(Cl)c2)c(Cl)c1 [Compound 315, N-[3-chloro-4-(3,5-dichlorophenyl)phenyl]-7-methyl-2,3-dioxo-1,4-dihydroquinoxaline-6-sulfonamide] |  | 1000 to 6000 | 100 to 1000 | 
4 | CCc1ccccc1-c1ccc(NS(=O)(=O)c2cc3[nH]c(=O)c(=O)[nH]c3cc2C)cc1 [Compound 113, N-(2′-ethyl-[1,1′-biphenyl]-4-yl)-7-methyl-2,3-dioxo-1,2,3,4-tetrahydroquinoxaline-6-sulfonamide] | 100 to 1000 | 100 to 1000 |  | 
5 | Cc1cc2[nH]c(=O)c(=O)[nH]c2cc1S(=O)(=O)Nc1ccc(-c2ccc(OC3CC3)cc2)c(Cl)c1 [Compound 268, N-[3-chloro-4-[4-(cyclopropoxy)phenyl]phenyl]-7-methyl-2,3-dioxo-1,4-dihydroquinoxaline-6-sulfonamide] |  | 100 to 1000 | 30 to 100 | 
6 | CN(C)c1cccc(-c2ccc(NS(=O)(=O)c3cc4[nH]c(=O)c(=O)[nH]c4cc3F)cc2Cl)c1 [Compound 34, N-(2-chloro-3′-(dimethylamino)-[1,1′-biphenyl]-4-yl)-7-fluoro-2,3-dioxo-1,2,3,4-tetrahydroquinoxaline-6-sulfonamide] | < 30 | 100 to 1000 |  | 
7 | CCc1cc2[nH]c(=O)c(=O)[nH]c2cc1S(=O)(=O)Nc1ccc(C2CC2)cc1 [Compound 67, N-(4-cyclopropylphenyl)-7-ethyl-2,3-dioxo-1,2,3,4-tetrahydroquinoxaline-6-sulfonamide] | 30 to 100 | 30 to 100 |  | 
8 | Cc1cc2[nH]c(=O)c(=O)[nH]c2cc1S(=O)(=O)Nc1ccc(-n2ccnc2)cc1 [Compound 292, N-(4-imidazol-1-ylphenyl)-7-methyl-2,3-dioxo-1,4-dihydroquinoxaline-6-sulfonamide] |  | 1000 to 6000 | 1000 to 3500 | 
9 | COc1ccc(-c2ccc(NS(=O)(=O)c3cc4[nH]c(=O)c(=O)[nH]c4cc3C)cc2Cl)cc1 [Compound 246, N-[3-chloro-4-(4-methoxyphenyl)phenyl]-7-methyl-2,3-dioxo-1,4-dihydroquinoxaline-6-sulfonamide] |  | 30 to 100 | < 30 | 
10 | CC(C)c1ccc(NS(=O)(=O)c2cc3[nH]c(=O)c(=O)[nH]c3cc2Cl)cc1 [Compound 142, 7-chloro-N-(4-isopropylphenyl)-2,3-dioxo-1,2,3,4-tetrahydroquinoxaline-6-sulfonamide] | 100 to 1000 | 100 to 1000 |  | 
11 | Cc1cc2[nH]c(=O)c(=O)[nH]c2cc1S(=O)(=O)Nc1ccc(-c2cccc(Cl)c2)c(Cl)c1 [Compound 26, N-(2,3′-dichloro-[1,1′-biphenyl]-4-yl)-7-methyl-2,3-dioxo-1,2,3,4-tetrahydroquinoxaline-6-sulfonamide] | < 30 | 30 to 100 |  | 
12 | Cc1cc2[nH]c(=O)c(=O)[nH]c2cc1S(=O)(=O)Nc1ccc(-c2cccc(N)c2)c(Cl)c1 [Compound 311, N-(3′-amino-2-chloro-[1,1′-biphenyl]-4-yl)-7-methyl-2,3-dioxo-1,2,3,4-tetrahydroquinoxaline-6-sulfonamide] |  | < 30 | 30 to 100 | 
13 | CN(C)c1cccc(-c2ccc(NS(=O)(=O)c3cc4[nH]c(=O)c(=O)[nH]c4cc3Cl)cc2Cl)c1 [Compound 9, 7-chloro-N-(2-chloro-3′-(dimethylamino)-[1,1′-biphenyl]-4-yl)-2,3-dioxo-1,2,3,4-tetrahydroquinoxaline-6-sulfonamide] | < 30 | 100 to 1000 |  | 
14 | Cc1cc2ccc(-c3ccc(NS(=O)(=O)c4cc5[nH]c(=O)c(=O)[nH]c5cc4C)cc3C(F)(F)F)cc2[nH]1 [Compound 364, 7-methyl-N-[4-(2-methyl-1H-indol-6-yl)-3-(trifluoromethyl)phenyl]-2,3-dioxo-1,4-dihydroquinoxaline-6-sulfonamide] |  | < 30 | < 30 | 
15 | Cc1cc2[nH]c(=O)c(=O)[nH]c2cc1S(=O)(=O)Nc1ccc(-c2cccc(CO)c2)c(Cl)c1 [Compound 333, N-[3-chloro-4-[3-(hydroxymethyl)phenyl]phenyl]-7-methyl-2,3-dioxo-1,4-dihydroquinoxaline-6-sulfonamide] |  | 100 to 1000 | 30 to 100 | 
16 | Cc1cc2[nH]c(=O)c(=O)[nH]c2cc1S(=O)(=O)Nc1ccc(-c2ccc(C(F)(F)F)nc2)c(Cl)c1 [Compound 275, N-[3-chloro-4-[6-(trifluoromethyl)-3-pyridyl]phenyl]-7-methyl-2,3-dioxo-1,4-dihydroquinoxaline-6-sulfonamide] |  | 1000 to 6000 | 100 to 1000 | 

Row | SMILES | IC50 [1] [nM] | EC50 ([2]; A549-LDH Assay activity) [nM] | EC50 [1] [nM] | EC50 ([2]; LDH Assay EC50) [nM]
17 | COc1ccc(-c2ncc(NS(=O)(=O)c3cc4[nH]c(=O)c(=O)[nH]c4cc3C)cc2Cl)cc1F [Compound 303, N-[5-chloro-6-(3-fluoro-4-methoxy-phenyl)-3-pyridyl]-7-methyl-2,3-dioxo-1,4-dihydroquinoxaline-6-sulfonamide] |  | 100 to 1000 | 100 to 1000 | 
18 | Cc1cc2[nH]c(=O)c(=O)[nH]c2cc1S(=O)(=O)Nc1ccc(N2CCOCC2(C)C)c(Cl)c1 [Compound 202, N-(3-chloro-4-(3,3-dimethylmorpholino)phenyl)-7-methyl-2,3-dioxo-1,2,3,4-tetrahydroquinoxaline-6-sulfonamide] |  | 100 to 1000 | 100 to 1000 | 
19 | Cc1cc2[nH]c(=O)c(=O)[nH]c2cc1S(=O)(=O)Nc1ccc(Cc2ccccc2)c(Cl)c1 [Compound 321, N-(4-benzyl-3-chloro-phenyl)-7-methyl-2,3-dioxo-1,4-dihydroquinoxaline-6-sulfonamide] |  | 100 to 1000 | 100 to 1000 | 
20 | Cc1cc2[nH]c(=O)c(=O)[nH]c2cc1S(=O)(=O)Nc1ccc(N2CCOCC2)c(Br)c1 [Compound 128, N-(3-bromo-4-morpholinophenyl)-7-methyl-2,3-dioxo-1,2,3,4-tetrahydroquinoxaline-6-sulfonamide] | 100 to 1000 | 100 to 1000 |  | 
21 | Cc1cc2[nH]c(=O)c(=O)[nH]c2cc1S(=O)(=O)Nc1ccc(-n2cncn2)c(Cl)c1 [Compound 263, N-[3-chloro-4-(1,2,4-triazol-1-yl)phenyl]-7-methyl-2,3-dioxo-1,4-dihydroquinoxaline-6-sulfonamide] |  | 100 to 1000 | 1000 to 3500 | 
22 | Cc1cc2[nH]c(=O)c(=O)[nH]c2cc1S(=O)(=O)Nc1ccc(-c2cccc(C(C)C)c2)c(Cl)c1 [Compound 39, N-(2-chloro-3′-isopropyl-[1,1′-biphenyl]-4-yl)-7-methyl-2,3-dioxo-1,2,3,4-tetrahydroquinoxaline-6-sulfonamide] | 30 to 100 | 1000 to 6000 |  | 
23 | Cc1cc(NS(=O)(=O)c2cc3[nH]c(=O)c(=O)[nH]c3cc2Cl)ccc1-c1ccoc1 [Compound 88, 7-chloro-N-(4-(furan-3-yl)-3-methylphenyl)-2,3-dioxo-1,2,3,4-tetrahydroquinoxaline-6-sulfonamide] | 30 to 100 | 100 to 1000 |  | 
24 | Cc1cc(NS(=O)(=O)c2cc3[nH]c(=O)c(=O)[nH]c3cc2C)ccc1Br [drawing 471 (R^2 = CH3)] |  |  | 267 | 91
25 | Cc1cc2[nH]c(=O)c(=O)[nH]c2cc1S(=O)(=O)Nc1ccc(-c2ccccc2N(C)C)c(Cl)c1 [Compound 136, N-(2-chloro-2′-(dimethylamino)-[1,1′-biphenyl]-4-yl)-7-methyl-2,3-dioxo-1,2,3,4-tetrahydroquinoxaline-6-sulfonamide] | 100 to 1000 | 100 to 1000 |  | 
26 | Cc1cc2[nH]c(=O)c(=O)[nH]c2cc1S(=O)(=O)Nc1ccc(C2CCCCC2)c(Br)c1 [Compound 306, N-(3-bromo-4-cyclohexylphenyl)-7-methyl-2,3-dioxo-1,2,3,4-tetrahydroquinoxaline-6-sulfonamide] |  | 100 to 1000 | 30 to 100 | 
27 | Cc1cc2[nH]c(=O)c(=O)[nH]c2cc1S(=O)(=O)Nc1cc(C)c(-c2ccccc2F)c(C)c1 [Compound 51, N-(2′-fluoro-2,6-dimethyl-[1,1′-biphenyl]-4-yl)-7-methyl-2,3-dioxo-1,2,3,4-tetrahydroquinoxaline-6-sulfonamide] | 30 to 100 | 30 to 100 |  | 
28 | O=c1[nH]c2cc(OC(F)(F)F)c(S(=O)(=O)Nc3ccc(-c4ccc(F)cc4)c(Cl)c3)cc2[nH]c1=O [Compound 197, N-(2-chloro-4′-fluoro-[1,1′-biphenyl]-4-yl)-2,3-dioxo-7-(trifluoromethoxy)-1,2,3,4-tetrahydroquinoxaline-6-sulfonamide] |  | 1000 to 6000 | 1000 to 3500 | 
29 | Cc1cc2[nH]c(=O)c(=O)[nH]c2cc1S(=O)(=O)Nc1ccc(-c2ccc(F)cc2)c(C#N)c1 [Compound 377, N-[3-cyano-4-(4-fluorophenyl)phenyl]-7-methyl-2,3-dioxo-1,4-dihydroquinoxaline-6-sulfonamide] |  | 100 to 1000 | 100 to 1000 | 
30 | Cc1cc2[nH]c(=O)c(=O)[nH]c2cc1S(=O)(=O)Nc1ccc(-c2ccc(=O)[nH]c2)c(Cl)c1 [Compound 358, N-[3-chloro-4-(6-oxo-1H-pyridin-3-yl)phenyl]-7-methyl-2,3-dioxo-1,4-dihydroquinoxaline-6-sulfonamide] |  | 30 to 100 | 100 to 1000 | 
31 | Cc1cc2[nH]c(=O)c(=O)[nH]c2cc1S(=O)(=O)Nc1ccc(C2CCC2)cc1 [Compound 362, N-(4-cyclobutylphenyl)-7-methyl-2,3-dioxo-1,4-dihydroquinoxaline-6-sulfonamide] |  | 30 to 100 | 100 to 1000 | 
32 | Cc1cc2[nH]c(=O)c(=O)[nH]c2cc1S(=O)(=O)Nc1ccc(-c2cc(F)cc(C(N)=O)c2)c(Cl)c1 [Compound 390, 3-[2-chloro-4-[(7-methyl-2,3-dioxo-1,4-dihydroquinoxalin-6-yl)sulfonylamino]phenyl]-5-fluoro-benzamide] |  | < 30 | < 30 | 
